In article PMC12120719, “Targeting Senescence with Apigenin Improves Chemotherapeutic Efficacy and Ameliorates Age‐Related Conditions in Mice” (Advanced Science, 2025):

Target: T1, PRDX6 (peroxiredoxin 6) (Homo sapiens, UniProt P30041)
T1 construct: recombinant human PRDX6 (SinoBiological), immobilized on CM5 chip
T1 sequence (P30041 2-224): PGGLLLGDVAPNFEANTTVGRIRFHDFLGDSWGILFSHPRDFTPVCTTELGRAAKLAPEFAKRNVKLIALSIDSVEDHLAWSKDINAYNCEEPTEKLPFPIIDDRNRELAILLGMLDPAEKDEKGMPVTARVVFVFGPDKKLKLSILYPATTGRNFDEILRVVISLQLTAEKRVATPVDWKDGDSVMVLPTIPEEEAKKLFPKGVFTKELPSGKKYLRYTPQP
Test: SPR (Biacore T200); supported by MST (Kd […]), CETSA, DARTS, biotin-probe pulldown
Type: binding

O=c1cc(-c2ccc(O)cc2)oc2cc(O)cc(O)c12 [apigenin, 4′,5,7‐trihydroxyflavone] gave a Kd of 237 nM.
